According to patent US20230271950A1, “ANTIBACTERIAL PICOLINAMIDE COMPOUNDS” (University of Notre Dame Du Lac, priority 2020, published 2023):
Read-outs that look alike come from different tables or passages of the source.

Columns and labels:
C. difficile = experiment: MIC by broth microdilution against C. difficile strains; assay type: cell-based, Clostridioides difficile
MRSA (NRS70, NRS119) = experiment: MIC against MRSA strains; assay type: cell-based, Staphylococcus aureus; conditions: for MIC: Staphylococcus aureus, read-out: MIC
S. aureus ATCC29213 = experiment: MIC against MSSA; assay type: cell-based, Staphylococcus aureus; conditions: Staphylococcus aureus
E. faecium NCTC7171 = experiment: MIC against E. faecium; assay type: cell-based, Enterococcus faecium; conditions: Enterococcus faecium
Bacteroides fragilis = experiment: MIC against gut bacterium Bacteroides fragilis; assay type: cell-based; conditions: Bacteroides fragilis, Bacteroides fragilis strain HM-709, read-out: MIC
Bifidobacterium longum = experiment: MIC against gut bacterium Bifidobacterium longum; assay type: cell-based; conditions: Bifidobacterium longum, Bifidobacterium longum strain HM-846, read-out: MIC
Corynebacterium spp. = experiment: MIC against gut bacterium Corynebacterium spp.; assay type: cell-based; conditions: Corynebacterium, Corynebacterium spp. strain HM-784
Fusobacterium nucleatum = experiment: MIC against gut bacterium Fusobacterium nucleatum; assay type: cell-based; conditions: Fusobacterium nucleatum, Fusobacterium nucleatum strain HM-992, read-out: MIC
Lactobacillus reuteri = experiment: MIC against gut bacterium Lactobacillus reuteri; assay type: cell-based
Lactobacillus gasseri = experiment: MIC against gut bacterium Lactobacillus gasseri; assay type: cell-based
Veillonella sp. HM-49 = experiment: MIC against gut bacterium Veillonella sp.; assay type: cell-based
Eubacterium sp. = experiment: MIC against gut bacterium Eubacterium sp.; assay type: cell-based; conditions: Eubacterium, Eubacterium sp. strain HM-178, read-out: MIC
[1] = test system: Fecal microbiota preparation; experiment: MIC against fecal microbiota preparation; assay type: cell-based; conditions: Fecal microbiota preparation from OpenBiome tested at 1000-fold dilution
Outline: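 Broth microdilution in brucella broth with hemin and vitamin K or supplemented BHIS; MRS broth for lactobacilli, sodium lactate added for Veillonella. Incubation 24 h or 48 h at 37° C anaerobically, except Corynebacterium and Lactobacillus grown aerobically.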

HeLa cells = experiment: XTT cytotoxicity assay with HeLa cells; assay type: cell-based; conditions: Homo sapiens
Description: XTT assay. Cytotoxicity assays were performed in triplicate against HeLa cells (ATCC CCL-2). The IC50 values were calculated by nonlinear regression with GraphPad Prism 5 (San Diego, Calif.).
XTT assay. XTT assays were performed with HeLa cells (ATCC CCL-2) in triplicate, as previously described (Lancet 2008, 371, 1486). IC50 values were determined by nonlinear regression using GraphPad Prism 5 (San Diego, Calif.).

O=C(O)c1ccc2oc(NC(=O)c3cc(Oc4cccc(OC(F)(F)F)c4)ccn3)nc2c1 [Compound 1, Sodium 2-(4-(3-(trifluoromethoxy)phenoxy)picolinamido)benzo[d]oxazole-5-carboxylate]
MIC (C. difficile; Clostridioides difficile, ATCC43598): 0.125 µg/mL
MIC (C. difficile; Clostridioides difficile, BAA1801): 0.125 µg/mL
MIC (C. difficile; Clostridioides difficile, BAA1803, C. difficile BAA-1803, Table 7, read-out: MIC): 0.0625 µg/mL
MIC (C. difficile; Clostridioides difficile, BAA1803, C. difficile BAA-1803, Table 9, read-out: MIC): 0.06 µg/mL
MIC (C. difficile; Clostridioides difficile, BAA1804): 0.125 µg/mL
MIC (C. difficile; Clostridioides difficile, BAA1812): 0.125 µg/mL
MIC (C. difficile; Clostridioides difficile, BAA1814): 0.125 µg/mL
MIC (C. difficile; Clostridioides difficile, BAA1870): 0.125 µg/mL
MIC (C. difficile; Clostridioides difficile, C. difficile 23828 (FR, fidaxomicin-resistant), Table 7, read-out: MIC): 0.25 µg/mL
MIC (C. difficile; Clostridioides difficile, C. difficile 23828, clinical isolate resistant to FDX, Table 1, read-out: MIC): 0.25 µg/mL
MIC (C. difficile; Clostridioides difficile, C. difficile 23828, Table 9, read-out: MIC): 0.25 µg/mL
MIC (C. difficile; Clostridioides difficile, C. difficile 24531 (VR, vancomycin-resistant), Table 7, read-out: MIC): 0.25 µg/mL
MIC (C. difficile; Clostridioides difficile, C. difficile 24531, Table 9, read-out: MIC): 0.25 µg/mL
MIC (C. difficile; Clostridioides difficile, C. difficile 26675 (MR, metronidazole-resistant), Table 7, read-out: MIC): 0.25 µg/mL
MIC (C. difficile; Clostridioides difficile, C. difficile 26675, clinical isolate resistant to MTZ, Table 1, read-out: MIC): 0.25 µg/mL
MIC (C. difficile; Clostridioides difficile, C. difficile 26675, Table 9, read-out: MIC): 0.25 µg/mL
MIC (C. difficile; Clostridioides difficile, C. difficile HM-88, Table 9, read-out: MIC): 0.25 µg/mL
MIC (C. difficile; Clostridioides difficile, C. difficile NR49294, Table 7, read-out: MIC): 0.0625 µg/mL
MIC (C. difficile; Clostridioides difficile, C. difficile NR49294, Table 9, read-out: MIC): 0.06 µg/mL
MIC (C. difficile; Clostridioides difficile, C. difficile NR49302, Table 7, read-out: MIC): 0.0625 µg/mL
MIC (C. difficile; Clostridioides difficile, C. difficile NR49302, Table 9, read-out: MIC): 0.06 µg/mL
MIC (C. difficile; Clostridioides difficile, C. difficile NR49305, Table 7, read-out: MIC): 0.0625 µg/mL
MIC (C. difficile; Clostridioides difficile, C. difficile NR49305, Table 9, read-out: MIC): 0.06 µg/mL
MIC (C. difficile; Clostridioides difficile, C. difficile NR49318, Table 7, read-out: MIC): 0.06 µg/mL
MIC (C. difficile; Clostridioides difficile, C. difficile NR49318, Table 9, read-out: MIC): 0.06 µg/mL
MIC (C. difficile; Clostridioides difficile, C. difficile NR-13429, Table 9, read-out: MIC): 0.06 µg/mL
MIC (C. difficile; Clostridioides difficile, C. difficile NR-13431, Table 9, read-out: MIC): 0.06 µg/mL
MIC (C. difficile; Clostridioides difficile, C. difficile NR-13433, Table 9, read-out: MIC): 0.25 µg/mL
MIC (C. difficile; Clostridioides difficile, C. difficile NR-32885, Table 9, read-out: MIC): 0.25 µg/mL
MIC (C. difficile; Clostridioides difficile, C. difficile NR-32890, Table 9, read-out: MIC): 0.25 µg/mL
MIC (C. difficile; Clostridioides difficile, C. difficile NR-32891, Table 9, read-out: MIC): 0.25 µg/mL
MIC (C. difficile; Clostridioides difficile, C. difficile NR-32895, Table 9, read-out: MIC): 0.25 µg/mL
MIC (C. difficile; Clostridioides difficile, C. difficile NR-32896, Table 9, read-out: MIC): 0.25 µg/mL
MIC (C. difficile; Clostridioides difficile, C. difficile NR-32903, Table 9, read-out: MIC): 0.25 µg/mL
MIC (C. difficile; Clostridioides difficile, C. difficile NR-49281, Table 9, read-out: MIC): 0.06 µg/mL
MIC (C. difficile; Clostridioides difficile, C. difficile NR-49283, Table 9, read-out: MIC): 0.06 µg/mL
MIC (C. difficile; Clostridioides difficile, C. difficile NR-49284, Table 9, read-out: MIC): 0.25 µg/mL
MIC (C. difficile; Clostridioides difficile, C. difficile NR-49285, Table 9, read-out: MIC): 0.03 µg/mL
MIC (C. difficile; Clostridioides difficile, C. difficile NR-49287, Table 9, read-out: MIC): 0.06 µg/mL
MIC (C. difficile; Clostridioides difficile, C. difficile NR-49289, Table 9, read-out: MIC): 0.25 µg/mL
MIC (C. difficile; Clostridioides difficile, C. difficile NR-49297, Table 9, read-out: MIC): 0.06 µg/mL
MIC (C. difficile; Clostridioides difficile, C. difficile NR-49298, Table 9, read-out: MIC): 0.06 µg/mL
MIC (C. difficile; Clostridioides difficile, C. difficile NR-49304, Table 9, read-out: MIC): 0.25 µg/mL
MIC (C. difficile; Clostridioides difficile, C. difficile NR-49306, Table 9, read-out: MIC): 0.25 µg/mL
MIC (C. difficile; Clostridioides difficile, C. difficile NR-49311, Table 9, read-out: MIC): 0.25 µg/mL
MIC (C. difficile; Clostridioides difficile, C. difficile NR-49313, Table 9, read-out: MIC): 0.06 µg/mL
MIC (C. difficile; Clostridioides difficile, C. difficile NR-49321, Table 9, read-out: MIC): 0.25 µg/mL
MIC (C. difficile; Clostridioides difficile, C. difficile NR-49327, Table 9, read-out: MIC): 0.25 µg/mL
MIC (C. difficile; Clostridioides difficile, C. difficile NR-49328, Table 9, read-out: MIC): 0.06 µg/mL
MIC50 (C. difficile; Clostridioides difficile, 101 C. difficile strains): 0.12 µg/mL
MIC90 (C. difficile; Clostridioides difficile, 101 C. difficile strains, read-out: MIC90 (101 strains)): 0.25 µg/mL
Selectivity (C. difficile; MIC MRSA NRS70/MIC C. difficile ATCC43255, Table 7): 128
Selectivity (C. difficile; Table 8): 128
lower activity against MRSA (MRSA (NRS70, NRS119); MRSA versus C. difficile, Table 1): 128 fold
MIC (MRSA (NRS70, NRS119); MRSA NRS70, Table 1): 16 µg/mL
MIC (MRSA (NRS70, NRS119); MRSA NRS70, Table 7): 16 µg/mL
MIC (MRSA (NRS70, NRS119); MRSA NRS119, Table 1): 16 µg/mL
MIC (S. aureus ATCC29213; MSSA ATCC 29213, Table 10, unit inferred, read-out: Activity (MIC) against S. aureus): 64 µg/mL
MIC (S. aureus ATCC29213; S. aureus ATCC29213, Table 1, read-out: MIC): 64 µg/mL
MIC (E. faecium NCTC7171; NCTC7171, E. faecium NCTC 7171, Table 10, unit inferred, read-out: Activity (MIC) against E. faecium): ≥ 128 µg/mL
MIC (E. faecium NCTC7171; E. faecium NCTC7171, Table 1, read-out: MIC): > 128 µg/mL
MIC (Bacteroides fragilis; Table 1): 2 µg/mL
MIC (Bacteroides fragilis; Table 7): 4 µg/mL
MIC (Bifidobacterium longum; Table 1): 16 µg/mL
MIC (Bifidobacterium longum; Table 7): 16 µg/mL
MIC (Corynebacterium spp.; Table 1): 8 µg/mL
MIC (Corynebacterium spp.; Table 7): 8 µg/mL
MIC (Fusobacterium nucleatum; Table 1): 4 µg/mL
MIC (Fusobacterium nucleatum; Table 7): 4 µg/mL
MIC (Lactobacillus reuteri; Lactobacillus reuteri strain HM-102, Table 7): 4 µg/mL
MIC (Lactobacillus reuteri; Limosilactobacillus reuteri, Lactobacillus reuter strain HM-102, Table 1, read-out: MIC): 4 µg/mL
MIC (Lactobacillus gasseri; Lactobacillus gasseri strain HM-644, Table 7): >16 µg/mL
MIC (Lactobacillus gasseri; Lactobacillus gasseri, Lactobacillus gasser strain HM-644, Table 1, read-out: MIC): > 16 µg/mL
MIC (Veillonella sp. HM-49; SP.HM49, Veillonella sp. HM-49, Table 1, read-out: MIC): 16 µg/mL
MIC (Veillonella sp. HM-49; Veillonella sp. strain HM-49, Table 7): 16 µg/mL
MIC (Eubacterium sp.; Table 1): 8 µg/mL
MIC (Eubacterium sp.; Table 7): 16 µg/mL
MIC [1]: > 128 µg/mL
IC50 (HeLa cells): 179 ± 4 µg/mL
IC50 (HeLa cells; Table 6): 179 µg/mL
